{"source": "patent US6482939B1", "about": "“Form vi 5,6-dichloro-2-(isopropylamino)-1-(β-l-ribofuranosyl)-1h-bezimimidazole” (SmithKline Beecham Corporation, priority 1998, dated 2002)", "assay_type_in_all_cases": "physicochemical", "key": {"[1]": {"experiment": "Thermodynamic stability among crystalline forms"}, "[2]": {"experiment": "Total volatile content by thermogravimetric analysis (TGA)", "conditions": "TA Instruments Hi-Res TGA 2950 thermogravimetric analyzer (FIG. 7)", "experimental": "Accordingly, in a second aspect of the present invention there is provided the compound of formula (I) form VI, having a total volatile content of not more than 0.3% by weight (w/w) as determined by a TA Instruments Hi-Res TGA 2950 thermogravimetric analyzer (FIG. 7).\nDifferential scanning calorimetry (DSC) was performed on a TA Instruments DSC 2920 Differential Scanning Calorimetor equipped with a DSC auto sampler. Samples of 1 to 3 mg were crimped in standard aluminum pans with holes and heated from 25° C. to 250° C. at a rate of 10° C./minute under nitrogen purge. The percentage of total weight loss of the drug substance was determined on a TA Instruments Hi-Res TGA 2950 thermogravimetric analyzer (TGA) with a nitrogen purge."}, "[3]": {"experiment": "Gravimetric water vapor sorption (moisture sorption isotherm)", "experimental": "Moisture adsorption/desorption studies were conducted on a VTI vacuum microbalance at 25° C. after drying the sample at 60° C. under vacuum. Moisture adsorption was monitored under vacuum from 0 to 95% relative humidity and desorption was monitored from 95% down to 5% relative humidity. The criteria for equilibrium at a given relative humidity was less than 3 μg of weight change in 18 minutes."}, "[4]": {"experiment": "Stability samples stored at elevated temperature/relative humidity, examined for crystal form", "conditions": "80° C./50% RH, 60° C./75% RH, 60° C./50% RH and 40° C./75% RH, sealed conditions, 2 months"}}}
{"smiles": "CC(C)Nc1nc2cc(Cl)c(Cl)cc2n1[C@H]1O[C@@H](CO)[C@H](O)[C@@H]1O", "note": "[Form VI, 5,6-dichloro-2-(isopropylamino)-1-(β-L-ribofuranosyl)-1H-benzimidazole]", "values": [{"measurement": "thermodynamic stability relative to other forms", "setting": "[1]", "result": "most thermodynamically stable form"}, {"measurement": "total volatile content", "setting": "[2]", "result": "not more than 0.3 % by weight (w/w)"}, {"measurement": "hygroscopicity", "setting": "[3]", "result": "essentially non-hygroscopic"}, {"measurement": "water absorbed", "setting": "[3]; equilibrated up to 95% relative humidity at ambient temperature (FIG. 8)", "result": 0.3, "unit": "%"}]}
{"smiles": "CC(C)Nc1nc2cc(Cl)c(Cl)cc2n1[C@H]1O[C@@H](CO)[C@H](O)[C@@H]1O", "note": "[ethanolate, 5,6-dichloro-2-(isopropylamino)-1-(β-L-ribofuranosyl)-1H-benzimidazole]", "values": [{"measurement": "solid form stability on storage (conversion of crystal form)", "setting": "[4]", "result": "partially or completely converted to Form VI"}]}
